Assays:
Type in all cases: in vivo
[1] = test system: redroot pigweed (Amaranthus retroflexus, AMARE); experiment: Pre-emerge test, greenhouse herbicide activity screening; conditions: pre-emerge, 14 days after application, scale 0-100
Method in brief: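 Compounds in acetone were track-sprayed at 15-1000 g ai/ha (187 l/ha) on sandy loam pots: pre-emerge one day after seeding, post-emerge at 2-3 leaf stage with 0.25% v/v non-ionic surfactant. Phytotoxicity was rated 14 days later on a 0 (no damage) to 100 (complete death) scale.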

[2] = test system: barnyardgrass (Echinochloa crus-galli, ECHCG); experiment: as above; conditions: pre-emerge, 14 days after application, scale 0-100
Excerpt: (§1) A standard greenhouse herbicide activity screening system was used to evaluate the herbicidal efficacy and crop safety of these test compounds. Seven broadleaf weed species including redroot pigweed (Amaranthus retroflexus, AMARE, velvetleaf (Abutilon theophrasti, ABUTH), sicklepod (Cassia obtusifolia, CASOB), ivyleaf morningglory (Ipomoea hederacea, IPOHE), lambsquarters (Chenopodium album, CHEAL), common ragweed (Ambrosia artemisizfolia L., AMBEL), and cocklebur (Xanthium strumarium, XANST) were used as test species. Four grass weed species including green foxtail (Setaria viridis, SETVI), barnyardgrass (Echinochloa crus-galli, ECHCG), johnsongrass (Sorghum halepense, SORHA), and large crabgrass (Digitaria sanguinalis, DIGSA) were also used. In addition, three crop species, field corn (Zea mays L., var. Dekalb 535, CORN), soybean (Glycine max L., var. Pella 86, SOY), and is upland rice (Oryza sp., var. Tebonnet, RICE) were included.
(§2) All plants were grown in 10 cm square plastic pots which were filled with a sandy loam soil mix. For pre-emerge tests, seeds were planted one day prior to application of the test compounds. For post-emerge tests, seeds were planted 8-21 days prior to the test to allow emergence and good foliage development prior to application of the test substances. At the time of the post-emerge application, plants of all species were usually at the 2-3 leaf stage of development.
(§3) All test compounds Were dissolved in acetone and applied to the test units in a volume of 187 l /ha. Test materials were applied at rates ranging from 15 g ai/ha to 1000 g ai/ha using a track sprayer equipped with a TJ8001E even flow flat fan spray nozzle. Plants were arranged on a shelf so that the top of the canopy (post-emerge) or top of the soil surface (pre-emerge) was 40-45 cm below the nozzle. Pressurized air was used to force the test solution through the nozzle as it was mechanically advanced (via electrically driven chain drive) over the top of all test plants/pots. This application simulates a typical commercial field herbicide application.
(§4) In the post-emerge test, a commercial non-ionic surfactant was also included (0.25% v/v) to enhance wetting of the leaf surfaces of target plants. Immediately after application, test units of the pre-emerge applications were watered at the soil surface to incorporate the test materials. Subsequently, these test units were bottom-watered. Post-emerge test units were always bottom-watered.
(§5) At 14 days after application of the test materials, phytotoxicity ratings were recorded. A rating scale of 0-100 was used as previously described in Research Methods in Weed Science, 2nd edition, B. Truelove, Ed., Southern Weed Science Society, Auburn University, Auburn, Ala. 1977. Briefly, “0” corresponds to no damage and “100” corresponds to complete death of all plants in the test unit. This scale was used both to determine efficacy against weed species and damage to crop species. Herbicide activity data for various compounds of this invention, which are shown by compound No. in Tables 1-8, are shown in Tables 11 and 12.

[3] = test system: green foxtail (Setaria viridis, SETVI); experiment: as above; conditions: pre-emerge, 14 days after application, scale 0-100
Excerpt: as §1, §2, §3, §4, §5

[4] = test system: ivyleaf morningglory (Ipomoea hederacea, IPOHE); experiment: as above; conditions: pre-emerge, 14 days after application, scale 0-100
Excerpt: as §1, §2, §3, §4, §5

[5] = test system: lambsquarters (Chenopodium album, CHEAL); experiment: as above; conditions: pre-emerge, 14 days after application, scale 0-100
Excerpt: as §1, §2, §3, §4, §5

[6] = test system: large crabgrass (Digitaria sanguinalis, DIGSA); experiment: as above; conditions: pre-emerge, 14 days after application, scale 0-100
Excerpt: as §1, §2, §3, §4, §5

[7] = test system: sicklepod (Cassia obtusifolia, CASOB); experiment: as above; conditions: pre-emerge, 14 days after application, scale 0-100
Excerpt: as §1, §2, §3, §4, §5

[8] = test system: velvetleaf (Abutilon theophrasti, ABUTH); experiment: as above; conditions: pre-emerge, 14 days after application, scale 0-100
Excerpt: as §1, §2, §3, §4, §5

[9] = test system: field corn (Zea mays L., var. Dekalb 535, CORN); experiment: Pre-emerge test, crop safety; conditions: pre-emerge, 14 days after application, scale 0-100
Method in brief: (§6)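 Herbicidal damage is scored 0 (none) to 100 (complete plant death) two weeks after a simulated field spray. Rates span 15–1000 g ai/ha, delivered in acetone at 187 l/ha. For post-emergence treatments, plants have 2–3 leaves and the spray carries 0.25% v/v non-ionic surfactant.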

[10] = test system: upland rice (Oryza sp., var. Tebonnet, RICE); experiment: Pre-emerge test, crop safety; conditions: pre-emerge, 14 days after application, scale 0-100
Method in brief: as §6

[11] = test system: barnyardgrass (Echinochloa crus-galli, ECHCG); experiment: Post-emerge test, greenhouse herbicide activity screening; conditions: post-emerge, 14 days after application, rating scale 0-100
Excerpt: as §1, §2, §3, §4, §5

[12] = test system: green foxtail (Setaria viridis, SETVI); experiment: as above; conditions: post-emerge, 14 days after application, rating scale 0-100
Excerpt: as §1, §2, §3, §4, §5

[13] = test system: ivyleaf morningglory (Ipomoea hederacea, IPOHE); experiment: as above; conditions: post-emerge, 14 days after application, rating scale 0-100
Excerpt: as §1, §2, §3, §4, §5

[14] = test system: lambsquarters (Chenopodium album, CHEAL); experiment: as above; conditions: post-emerge, 14 days after application, rating scale 0-100
Excerpt: as §1, §2, §3, §4, §5

[15] = test system: large crabgrass (Digitaria sanguinalis, DIGSA); experiment: as above; conditions: post-emerge, 14 days after application, rating scale 0-100
Excerpt: as §1, §2, §3, §4, §5

[16] = test system: redroot pigweed (Amaranthus retroflexus, AMARE); experiment: as above; conditions: post-emerge, 14 days after application, rating scale 0-100
Excerpt: as §1, §2, §3, §4, §5

[17] = test system: sicklepod (Cassia obtusifolia, CASOB); experiment: as above; conditions: post-emerge, 14 days after application, rating scale 0-100
Excerpt: as §1, §2, §3, §4, §5

[18] = test system: velvetleaf (Abutilon theophrasti, ABUTH); experiment: as above; conditions: post-emerge, 14 days after application, rating scale 0-100
Excerpt: as §1, §2, §3, §4, §5

[19] = test system: field corn (Zea mays L., var. Dekalb 535, CORN); experiment: Post-emerge test, crop safety; conditions: post-emerge, 14 days after application, rating scale 0-100
Method in brief: (§7)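 Fourteen days after spraying, crop and weed injury was graded visually from 0, no effect, to 100, every plant dead. Test substances were dissolved in acetone and applied at 15–1000 g ai/ha with a flat-fan nozzle. Application was either pre-emergence, one day after sowing, or post-emergence at the 2–3 leaf stage.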

[20] = test system: upland rice (Oryza sp., var. Tebonnet, RICE); experiment: Post-emerge test, crop safety; conditions: post-emerge, 14 days after application, rating scale 0-100
Method in brief: as §7

COc1c(Cl)cc(F)c(-n2c(=O)cc(C(F)(F)F)n(N)c2=O)c1NC(=O)COCc1ccccc1 [2-187]
15: CORN phytotoxicity rating (crop damage) ([19]; 63 g ai/ha)
40: phytotoxicity rating RICE (crop damage) ([10]; 63 g ai/ha) | ECHCG phytotoxicity rating ([11]; 250 g ai/ha) | SETVI phytotoxicity rating ([12]; 63 g ai/ha) | DIGSA phytotoxicity rating ([15]; 250 g ai/ha)
75: phytotoxicity rating IPOHE ([4]; 63 g ai/ha) | CORN phytotoxicity rating (crop damage) ([19]; 250 g ai/ha)
70: CASOB phytotoxicity rating ([17]; 63 g ai/ha)
50: phytotoxicity rating SETVI ([3]; 63 g ai/ha) | RICE phytotoxicity rating (crop damage) ([20]; 63 g ai/ha)
99: AMARE phytotoxicity rating ([16]; 63 g ai/ha)
0: phytotoxicity rating CORN (crop damage) ([9]; 63 g ai/ha)
20: phytotoxicity rating ECHCG ([2]; 63 g ai/ha) | ECHCG phytotoxicity rating ([11]; 63 g ai/ha)
60: phytotoxicity rating ECHCG ([2]; 250 g ai/ha) | phytotoxicity rating CASOB ([7]; 63 g ai/ha) | SETVI phytotoxicity rating ([12]; 250 g ai/ha)
100: phytotoxicity rating AMARE ([1]; 63 g ai/ha) | phytotoxicity rating AMARE ([1]; 250 g ai/ha) | phytotoxicity rating SETVI ([3]; 250 g ai/ha) | phytotoxicity rating IPOHE ([4]; 250 g ai/ha) | phytotoxicity rating CHEAL ([5]; 63 g ai/ha) | phytotoxicity rating CHEAL ([5]; 250 g ai/ha) | phytotoxicity rating DIGSA ([6]; 250 g ai/ha) | phytotoxicity rating CASOB ([7]; 250 g ai/ha) | phytotoxicity rating ABUTH ([8]; 63 g ai/ha) | phytotoxicity rating ABUTH ([8]; 250 g ai/ha) | IPOHE phytotoxicity rating ([13]; 63 g ai/ha) | IPOHE phytotoxicity rating ([13]; 250 g ai/ha) | CHEAL phytotoxicity rating ([14]; 63 g ai/ha) | CHEAL phytotoxicity rating ([14]; 250 g ai/ha) | AMARE phytotoxicity rating ([16]; 250 g ai/ha) | CASOB phytotoxicity rating ([17]; 250 g ai/ha) | ABUTH phytotoxicity rating ([18]; 63 g ai/ha) | ABUTH phytotoxicity rating ([18]; 250 g ai/ha)
90: phytotoxicity rating DIGSA ([6]; 63 g ai/ha) | phytotoxicity rating CORN (crop damage) ([9]; 250 g ai/ha) | phytotoxicity rating RICE (crop damage) ([10]; 250 g ai/ha) | RICE phytotoxicity rating (crop damage) ([20]; 250 g ai/ha)
10: DIGSA phytotoxicity rating ([15]; 63 g ai/ha)

— patent publication US6355799B1, “Substituted benzene compounds, process for their preparation, and herbicidal and defoliant compositions containing them” (ISK Americas Incorporated, priority 1997, dated 2002)
